Article doi:10.1101/2023.02.14.528348v1, “Plasticity of the binding pocket in peptide transporters underpins promiscuous substrate recognition” (biorxiv, 2023)
Marks after values point to notes of the source that are not given here. Residues, ends and D or L forms follow the SMILES beside them.

What was measured:
[1] = molecular target: T1, DtpB (Escherichia coli, UniProt P36837); assay: inhibition of AA transport, pyranine fluorescence assay in proteoliposomes; assay type: biochemical
T1 construct: purified membrane protein; reconstituted in liposomes for transport; Nb132 complex for crystals; host, tags and borders only in supplement
T1 sequence (P36837 1-489): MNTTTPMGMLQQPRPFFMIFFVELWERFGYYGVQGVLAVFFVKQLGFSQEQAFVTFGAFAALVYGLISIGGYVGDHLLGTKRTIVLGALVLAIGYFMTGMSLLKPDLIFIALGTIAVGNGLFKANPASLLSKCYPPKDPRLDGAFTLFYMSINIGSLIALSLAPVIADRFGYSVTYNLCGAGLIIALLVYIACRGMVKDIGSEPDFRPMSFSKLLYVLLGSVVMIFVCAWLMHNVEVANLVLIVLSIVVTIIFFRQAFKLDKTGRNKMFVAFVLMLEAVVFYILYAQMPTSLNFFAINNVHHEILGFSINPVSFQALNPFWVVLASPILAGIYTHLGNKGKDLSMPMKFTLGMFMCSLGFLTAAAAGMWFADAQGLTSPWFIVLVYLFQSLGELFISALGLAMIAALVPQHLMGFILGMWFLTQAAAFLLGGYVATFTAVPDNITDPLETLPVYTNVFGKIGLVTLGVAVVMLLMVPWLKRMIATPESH

[2] = molecular target: T1, DtpB; assay: thermal unfolding titration, irreversible kinetic (Hall) model; also co-crystal structure; assay type: binding; details: purified protein
[3] = molecular target: T1, DtpB; assay: inhibition of AA transport, pyranine fluorescence assay in proteoliposomes; assay type: biochemical; remark: listed apart in the source
[4] = molecular target: T1, DtpB; assay: thermal unfolding titration, irreversible kinetic (Hall) model; assay type: binding
[5] = molecular target: T1, DtpB; assay: X-ray crystal structure of complex; assay type: binding; details: crystallised with nanobody Nb132; inward-facing open; central cavity

SMILES: C[C@H](N)C(=O)N[C@@H](Cc1ccccc1)C(=O)O [AF, Ala-Phe]
- IC50 [1]: 2370 ± 680 µM
- KD [2]: Peptide affinity is color-coded with AF having the highest affinity
- Ki [3]: 250 ± 80 µM

SMILES: C[C@H](N)C(=O)N[C@@H](Cc1c[nH]cn1)C(=O)O [AH] (H-Ala-His-OH)
- Kd [4]: 100 ± 40 µM

SMILES: CC[C@H](C)[C@H](NC(=O)[C@H](C)N)C(=O)O [AI, Ala-Ile] (H-Ala-Ile-OH)
- X-ray crystal structure of complex [5]: Structure of DtpB bound to nanobody Nb132 and the dipeptide AI

SMILES: C[C@H](N)C(=O)N[C@@H](CCCCN)C(=O)O [AK] (H-Ala-Lys-OH)
- Kd [4]: 1770 ± 90 µM

SMILES: CC(C)[C@H](NC(=O)[C@@H](N)CCCCN)C(=O)O [KV, Lys-Val] (H-Lys-Val-OH)
- X-ray crystal structure of complex [5]: Q34 interacts with the ε-amino group of K1* in KV

SMILES: O=C(O)[C@H](Cc1ccc(O)cc1)NC(=O)[C@@H]1CCCN1 [PY] (H-Pro-Tyr-OH)
- Kd [4]: 206 ± 126 µM

SMILES: N[C@@H](CO)C(=O)N[C@@H](Cc1c[nH]cn1)C(=O)O [SH] (H-Ser-His-OH)
- Kd [4]: 352 ± 38 µM
